Data taken from patent US20230271142A1, “METHODS OF PREPARING SOLID PARTICULATE MATERIALS” (MICROPORE TECHNOLOGIES LIMITED, priority 2020, published 2023).
Several values for one entry are separate records, joined by “and”; a condition that tells them apart may be missing. Equal entries are not always repeated.

How the values were obtained:
Format in all cases: physicochemical
[1] = Crystal size distribution of metformin crystals produced via LDC (Jorin ViPA)
Method: 0.4 g of Metformin was dissolved in 10 ml methanol in a beaker to make up the organic phase. 0.5% Tween 20 in […] was used as the aqueous phase.
The LDC was configured with a membrane with 10 μm pores, spaced 200 μm apart in a ring-shape. The stirrer speed was set at 14V (1750 rpm), and the injection rate set at 10 ml/min. The line was primed with organic phase and the aqueous phase was poured into the dispersion cell. Addition of the organic phase was started and ended when 3 ml of DP was injected.
The solution was left to stir until precipitation was visible. The crystals were analyzed via microscopy and Jorin ViPA. The results are relayed in FIG. 23 and Table 9.

[2] = Effect of aqueous phase surfactant on carbamazepine crystals produced via LDC (Jorin ViPA); details: for D10 / D50 / D90 / Volume Mean: LDC
Method: 0.4 g of Carbamazepine was dissolved in 10 ml methanol in a beaker at 45° C. to make up the organic phase. In one instance, 0.5% Pluronic PEG P123 (Mn˜5,800) in DI water was used as the aqueous phase. In another instance, 0.5% HPMC (Mn˜10,000) in DI water was used as the aqueous phase.
The LDC was configured with a membrane with 10 μm pores, spaced 200 μm apart in a ring formation. The stirrer speed was set at 14V (1750 rpm), and the organic phase injection rate set at 10 ml/min. The line was primed with organic phase and the aqueous was poured into the stirred cell. The organic phase addition was started and ended when 3 ml of DP was injected.
The solution was left to stir until precipitation was visible. The crystals were analyzed via microscopy and Jorin ViPA. The results are relayed in FIG. 18 and Table 7.

[3] = Crystal size distribution of piroxicam crystals from CXF by laser diffraction (Beckmann Coulter LS-230); details: 5 μm pores
Method: The CXF was configured with a membrane with 5 μm pores, spaced 45 μm apart in a square grid. A 9.5 mm insert was used. The materials were pumped using gear pumps. The aqueous continuous phase was pumped at […] through the annulus at the center of the membrane. The organic disperse phase was pumped at 17 mL/min through the top port of the device, through the membrane and into the flow of continuous phase. The solution was collected in a 250 ml beaker and stirred with an overhead stirrer at 500 rpm for 10-15 minutes. The crystals were analyzed via microscopy and Laser Diffraction (Beckmann Coulter LS-230). The results are relayed in FIGS. 4 and 5 and Table 2.

[4] = Crystal size distribution of prednisolone crystals from CXF by Jorin ViPA; details: 10 μm pores
Method: 8 g of Prednisolone was dissolved in 200 ml of ethanol in a beaker at 55° C. to make up the organic phase. 0.5% PVA (Mowiol 23-88) in DI water was used as the aqueous phase.
The CXF was configured with a membrane with 10 μm pores, spaced 200 μm apart in a square grid. A 9.5 mm insert was used. The materials were pumped using gear pumps, calibrated so the aqueous continuous phase flow was […] and the organic disperse phase flow was 28 mL/min.
The aqueous continuous phase was pumped through the annulus at the center of the membrane. The organic disperse phase, held at 55° C., was pumped through the top port of the device, through the membrane pores and into the flow of continuous phase.
The resultant solution was collected in a 500 ml beaker and stirred with an overhead stirrer at 500 rpm for 10-15 minutes. The crystals were analyzed via microscopy and Jorin ViPA. The results are relayed in FIGS. 6 and 7 and Table 3.

[5] = Effect of disperse phase flow rate on size distribution of telmisartan particles (CXF, laser diffraction); details: for D10 / D50 / D90 / Volume Mean: CXF, 10 μm pores
Method: A solution of telmisartan in DMSO (0.06 g/ml) was prepared as the organic phase. The aqueous phase was composed of distilled water. The CXF was configured with a membrane with 10 μm pores, spaced 200 μm apart in a square grid. A 9.5 mm insert was used. The materials were pumped using gear pumps. The aqueous continuous phase was pumped through the annulus at the center of the membrane at […]. The organic disperse phase was pumped through the top port of the device at rates of […], through the membrane and into the flow of continuous phase that was calibrated. The solution was collected in a beaker and stirred with an overhead stirrer at 500 rpm for 5-10 minutes.

[6] = Particle size distribution of amorphous telmisartan produced via LDC and CXF (laser diffraction); details: three runs; for D10 / D50 / D90 / Volume Mean D[4,3]: 10 μm pores, ± standard deviation; for StDev: of the size distribution
Method: Reproducibility of the Production of Amorphous Telmisartan and Translation from Stirred Cell LDC to Continuous Crossflow CXF Devices A solution of telmisartan in DMSO (0.06 g/ml) was prepared for use as the organic phase. An aqueous phase of 50 ml of DI water was prepared. The LDC was configured with a membrane with 10 μm pores, spaced 200 μm apart in a square grid, in a ring sat underneath a stirrer paddle. […] The stirrer was set to […] (1750 rpm). […] The LDC runs were repeated three times. Additionally, a solution of telmisartan in DMSO (0.06 g/ml) was prepared as an organic phase. An aqueous phase was composed of distilled water. A CXF was configured with a membrane with 10 μm pores, spaced 200 μm apart in a square grid. A 9.5 mm insert was used. The materials were pumped using gear pumps. The aqueous continuous phase was pumped through the annulus at the center of the membrane at a rate of 464 ml/min. The organic disperse phase was pumped through the top port of the device at a rate of 58 mL/min, through the membrane pores and into the flow of continuous phase. This preserved the 8:1 CP:DP ratio used in the LDC experiments and generated a similar shear profile. The solution was collected in a beaker and stirred with an overhead stirrer at 500 rpm for 5-10 minutes. The CXF runs were repeated three times. The particle size distributions of material produced on the LDC are shown in Table 6, with errors given as the standard deviations, alongside those for the CXF runs.

[7] = Effect of membrane pore diameter on size distribution of telmisartan particles (CXF, laser diffraction); details: for D10 / D50 / D90 / Volume Mean: CXF, DP 58 mL/min
Method: A solution of telmisartan in DMSO (0.06 g/ml) was prepared as the organic phase. The aqueous phase was composed of distilled water. The CXF was configured with membranes of different pore sizes that included 5, 10, 20 and 40 μm pores, spaced 200 μm apart in a square grid. A 9.5 mm insert was used. The materials were pumped using gear pumps. The aqueous continuous phase was pumped through the annulus at the center of the membrane at a rate of 464 ml/min. The organic disperse phase was pumped through the top port of the device at a rate of 58 mL/min, through the membrane pores and into the flow of continuous phase. The solution was collected in a beaker and stirred with an overhead stirrer at 500 rpm for 5-10 minutes.

[8] = Crystal size distribution of paracetamol crystals from CXF by Jorin Visual Particle Size Analyser (ViPA)
Method: A solution of paracetamol in ethanol (0.3 g/ml) was prepared, alongside an aqueous phase consisting of 0.5% wt. PEG […] in DI water. The CXF was configured with a membrane with 10 μm pores, spaced 200 μm apart in a square grid. A 9.5 mm insert was used. The materials were pumped using gear pumps. The aqueous continuous phase was pumped through the annulus at the center of the membrane. The organic disperse phase was pumped through the top port of the device calibrated at a rate of […], through the membrane and into the flow of continuous phase at 200 ml/min. The solution was collected in a beaker and stirred with an overhead stirrer at 500 rpm for 10-15 minutes. The experiment was repeated 3 times. The resultant crystal suspension was examined via microscopy (see FIG. 1), and Jorin Visual Particle Size Analyser (ViPA) for crystal size and uniformity, (FIG. 2 and Table 1).

[9] = 10 μm pores, methanol solution into 0.5% Tween 20 in acetonitrile
[10] = aqueous phase 0.5% HPMC (form III)
[11] = aqueous phase 0.5% P123 (form II)
[12] = volume distribution, ethanol solution into 0.5% HPMC water
[13] = volume distribution, ethanol solution 55° C. into 0.5% PVA water
[14] = disperse phase 58 mL/min (average of three)
[15] = 10 μm pore membrane (average of three)
[16] = Average ± Standard Deviation of 3 runs
[17] = CXF, 10 μm pores, Average ± Standard Deviation of 3 runs
[18] = volume distribution, CXF, 10 μm pores, ethanol solution into 0.5% PEG P123 water, single runs 1-3

CN(C)C(=N)N=C(N)N [Metformin]
Span [1]: 1.09
Size Mean ([1]; 10 μm pores): 12.430 μm
Volume Mean ([1]; 10 μm pores): 53.10 μm
D10 [1, 9]: 25.63 μm
D50 [1, 9]: 50.80 μm
D90 [1, 9]: 81.03 μm

NC(=O)N1c2ccccc2C=Cc2ccccc21 [Carbamazepine]
Span ([2]; 0.5% HPMC): 1.10
Span ([2]; 0.5% P123): 0.81
D10 [2, 10]: 28.90 μm
D50 [2, 10]: 44.92 μm
D90 [2, 10]: 78.16 μm
Volume Mean [2, 10]: 48.84 μm
D10 [2, 11]: 29.92 μm
D50 [2, 11]: 42.37 μm
D90 [2, 11]: 64.09 μm
Volume Mean [2, 11]: 45.79 μm

CN1C(C(=O)Nc2ccccn2)=C(O)c2ccccc2S1(=O)=O [Piroxicam]
Span [3]: 1.78
Mean ([3]; volume distribution): 6.978 μm
D10 [3, 12]: 1.240 μm
D50 [3, 12]: 6.562 μm
D90 [3, 12]: 12.96 μm

C[C@]12C=CC(=O)C=C1CC[C@@H]1[C@@H]2[C@@H](O)C[C@@]2(C)[C@H]1CC[C@]2(O)C(=O)CO [Prednisolone]
Span [4]: 0.72
Volume Mean [4]: 45.73 μm
D10 [4, 13]: 29.47 μm
D50 [4, 13]: 43.76 μm
D90 [4, 13]: 60.78 μm

CCCc1nc2c(C)cc(-c3nc4ccccc4n3C)cc2n1Cc1ccc(-c2ccccc2C(=O)O)cc1 [Telmisartan, telmisartan]
D10 ([5]; disperse phase 15 mL/min): 4.653 μm
D50 ([5]; disperse phase 15 mL/min): 10.11 μm
D90 ([5]; disperse phase 15 mL/min): 15.76 μm
Volume Mean ([5]; disperse phase 15 mL/min): 10.17 μm
D10 ([5]; disperse phase 29 mL/min): 4.981 μm
D50 ([5]; disperse phase 29 mL/min): 10.09 μm
D90 ([5]; disperse phase 29 mL/min): 18.9 μm
Volume Mean ([5]; disperse phase 29 mL/min): 11.79 μm
D10 [5, 14]: 7.359 μm
D50 [5, 14]: 15.66 μm
D90 [5, 14]: 28.00 μm
Volume Mean [5, 14]: 17.11 μm
Span ([5]; disperse phase 15 mL/min): 1.099
Span ([5]; disperse phase 29 mL/min): 1.379
Span [5, 14]: 1.318
D10 ([6]; CXF): 7.359 ± 1.096 μm
D50 ([6]; CXF): 15.66 ± 1.558 μm
D90 ([6]; CXF): 28.0 ± 2.091 μm
Volume Mean D[4,3] ([6]; CXF): 17.11 ± 1.538 μm
CV ([6]; CXF): 50.57 ± 3.09%
Span ([6]; CXF): 1.389 ± 0.070
D10 ([6]; LDC): 6.952 ± 0.357 μm
D50 ([6]; LDC): 14.32 ± 0.693 μm
D90 ([6]; LDC): 26.43 ± 1.268 μm
Volume Mean D[4,3] ([6]; LDC): 15.79 ± 0.755 μm
CV ([6]; LDC): 51.07 ± 0.937%
Span ([6]; LDC): 1.360 ± 0.028
StDev ([6]; CXF): 8.565 ± 0.275 μm
StDev ([6]; LDC): 8.066 ± 0.430 μm
C.V ([7]; 5 μm pore membrane): 53.31%
C.V [7, 15]: 50.06%
C.V ([7]; 20 μm pore membrane): 57.77%
C.V ([7]; 40 μm pore membrane): 56.41%
D10 ([7]; 5 μm pore membrane): 6.506 μm
D50 ([7]; 5 μm pore membrane): 13.01 μm
D90 ([7]; 5 μm pore membrane): 22.83 μm
Volume Mean ([7]; 5 μm pore membrane): 14.31 μm
D10 [7, 15]: 7.359 μm
D50 [7, 15]: 15.66 μm
D90 [7, 15]: 28.00 μm
Volume Mean [7, 15]: 17.11 μm
D10 ([7]; 20 μm pore membrane): 6.555 μm
D50 ([7]; 20 μm pore membrane): 18.72 μm
D90 ([7]; 20 μm pore membrane): 37.68 μm
Volume Mean ([7]; 20 μm pore membrane): 20.60 μm
D10 ([7]; 40 μm pore membrane): 8.451 μm
D50 ([7]; 40 μm pore membrane): 23.16 μm
D90 ([7]; 40 μm pore membrane): 45.99 μm
Volume Mean ([7]; 40 μm pore membrane): 25.42 μm

CC(=O)Nc1ccc(O)cc1 [Paracetamol, paracetamol]
CV % [8, 16]: 39.07 ± 1.660%
Span [8, 16]: 1.100 ± 0.066
Volume Mean D[4,3] ([8]; CXF, 10 μm pores, ethanol solution into 0.5% PEG P123 water, single runs 1-3): 45.37 μm and 44.28 μm and 41.17 μm
D10 [8, 17]: 23.81 ± 0.894 μm
D50 [8, 17]: 40.42 ± 0.573 μm
D90 [8, 17]: 68.31 ± 3.604 μm
Volume Mean D[4,3] [8, 17]: 43.61 ± 1.258 μm
Span ([8]; CXF, 10 μm pores, single runs 1-3): 1.232 and 1.044 and 1.024
StDev ([8]; of the size distribution, Average ± Standard Deviation of 3 runs): 17.05 ± 1.021 μm
D10 [8, 18]: 24.12 μm and 25.18 μm and 22.13 μm
D50 [8, 18]: 41.15 μm and 40.82 μm and 39.29 μm
D90 [8, 18]: 74.81 μm and 67.77 μm and 62.36 μm
